Assay results published in patent US11535856B2, “Stilbenoid prenyltransferases from plants” (Arkansas State University—Jonesboro, priority 2016, dated 2022).

Columns and labels:
[1] = Lipophilicity from retention in reverse-phase HPLC; conditions: later retention time in reverse-phase HPLC
[2] = tested on: rotavirus; conditions: HT29.f8 cells; cited from earlier work
[3] = tested on: macrophages; conditions: cited from earlier work
[4] = tested on: SK-MEL, KB, BT-549, and SK-OV-3; conditions: BT-549, SK-OV-3; cited from earlier work
[5] = tested on: leukemia HL-60 cells; conditions: cited from earlier work
[6] = target: human cannabinoid receptors 2 (hCBR2s) (Homo sapiens, UniProt P34972); conditions: cited from earlier work
Chain of human cannabinoid receptors 2 (hCBR2s) (P34972 whole entry): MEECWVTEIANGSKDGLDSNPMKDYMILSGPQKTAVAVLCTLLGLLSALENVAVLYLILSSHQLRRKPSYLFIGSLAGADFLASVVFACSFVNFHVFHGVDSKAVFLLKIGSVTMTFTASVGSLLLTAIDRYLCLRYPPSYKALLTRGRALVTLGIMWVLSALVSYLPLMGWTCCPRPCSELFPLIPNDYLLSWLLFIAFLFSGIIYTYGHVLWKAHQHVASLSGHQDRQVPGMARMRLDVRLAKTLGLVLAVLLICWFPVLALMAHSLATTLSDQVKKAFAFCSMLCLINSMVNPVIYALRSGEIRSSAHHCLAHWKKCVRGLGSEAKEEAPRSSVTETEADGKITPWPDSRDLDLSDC

[7] = tested on: intracellular reactive oxygen species; conditions: cited from earlier work
[8] = in vivo; cited from earlier work
[9] = tested on: resveratrol prenyltransferase AhR4DT; test: Prenyltransferase assay with microsomal fraction of elicited peanut hairy roots; type: biochemical, Arachis hypogaea; conditions: microsomal fraction of peanut hairy roots, 28° C., 60 min; read-out: apparent km
[10] = substrate: Oc1ccc(/C=C/c2cc(O)cc(O)c2)cc1; test: cells, lysate or membranes named; conditions: other: microsomal fraction of N. benthamiana leaves, pH 9.0, 28° C.
[11] = substrate: CC(C)=CCOP(=O)(O)OP(=O)(O)O; test: cells, lysate or membranes named; conditions: other: microsomal fraction of N. benthamiana leaves, pH 9.0, 28° C.
[12] = substrate: Oc1cc(O)cc(/C=C/c2ccc(O)c(O)c2)c1; test: cells, lysate or membranes named
[13] = target: AhR4DT-1 (Arachis hypogaea, UniProt A0A2H4GDC8); test: AhR4DT-1 activity in microsomal fraction of N. benthamiana leaves; conditions: N. benthamiana leaves
[14] = tested on: resveratrol prenylation; test: Screening for stilbenoid prenylation activity, crude extract of infiltrated N. benthamiana leaves; type: biochemical, Arachis hypogaea; conditions: resveratrol and DMAPP as substrates
Method: The engineered A. tumefaciens was grown in 5 mL of YEP medium, containing 50 mg/L of kanamycin (Sigma-Aldrich) and 30 mg/L of streptomycin (Sigma-Aldrich) for antibiotic selection, at 28° C. on an orbital shaker at 200 rpm. After cultivation for 2 days, 5 mL of bacterial suspension was inoculated into 50 mL of fresh YEP medium containing the antibiotics and allowed to grow for one additional day under the same conditions. Bacteria were pelleted by centrifugation, resuspended in 500 mL of induction medium containing 10 mM MgCl2 with 1 mM acetosyringone and incubated for 4 h at 28° C. under 200 rpm orbital shaking until their OD600 reached to a range from 0.5 to 0.6. Before the infiltration, 0.005% of Tween-20, 0.005% of Triton 100 and 0.005% of Silwet L-77 were added to bacterial cultures to enhance the efficiency of transformation in N. benthamiana leaves. Agrobacterium-mediated vacuum infiltration was performed on 4-week-old N. benthamiana following the methodology described previously (Medrano et al., 2009).
After 48 hours of post-infiltration, the “middle tier” of N. benthamiana leaves were harvested for prenylation activity screening. Five grams of leaf tissue (fresh weight) were grounded and homogenized using a mortar with pestle in 10 mL of extraction buffer containing 100 mM Tris-HCl (pH 7.6) and 10 mM dithiothreitol (DTT). […] The total protein concentration was determined by coomassie protein assay (Thermo Scientific) using bovine serum albumin as standard.
The reaction of crude cell-free extract of N. benthamiana leaves infiltrated with A. tumefaciens harboring the empty pBIB-Kan vector was used as control.

[15] = target: AhR3′DT-1 (Arachis hypogaea, UniProt A0A2H4GDD0); test: AhR3′DT-1 activity in microsomal fraction of N. benthamiana leaves; conditions: N. benthamiana leaves

In the case of CC(C)/C=C/c1c(O)cc(/C=C/c2ccc(O)c(O)c2)cc1O [arachidin-1], the “lipophilicity compared with 3,3-dimethylallyl analogs” value [1] is listed as “higher lipophilicity”, the replication of rotavirus [2] is listed as “inhibiting the replication of rotavirus” and the “inhibiting inducible nitric oxide production” value [3] is listed as “more effective than resveratrol”. The cytotoxicity [4] was “higher cytotoxicity than resveratrol”, the cytotoxicity [5] was “higher cytotoxicity than resveratrol” and the “binding to hCBR2s” value [6] was “shown to bind”.

In the case of CC(C)=CCc1c(O)cc(/C=C/c2ccc(O)cc2)cc1O [arachidin-2], the “inhibiting production of intracellular reactive oxygen species” value [7] is listed as “greater potency over resveratrol” and the “inhibiting inducible nitric oxide production” value [3] is listed as “more effective than resveratrol”.

In the case of CC(C)/C=C/c1c(O)cc(/C=C/c2ccc(O)cc2)cc1O [arachidin-3], the “inhibiting production of intracellular reactive oxygen species” value [7] is listed as “greater potency over resveratrol”, the replication of rotavirus [2] is listed as “inhibiting the replication of rotavirus” and the “inhibiting inducible nitric oxide production” value [3] is listed as “more effective than resveratrol”. For the same molecule, the “binding to hCBR2s” value [6] was “shown to bind”.

For Oc1ccc(/C=C/c2cc(O)cc(O)c2)cc1 [resveratrol, 3,5,4′-trihydroxy-trans-stilbene], the oral bioavailability [8] is listed as “limited oral bioavailability” and the Km [9] is listed as 111 ± 40.4 µM.

B1: AhR4DT-1 (Arachis hypogaea) (protein)
chain: MAFGHLVLIPRSTSSIATTAASCWKSKKFADNYYANSYGRRALWQSDRNLTKDHSIKTSLQHNISKLHYNPIERGSRCNKIEKTYLTNASSSAQSHESEPEVHESPKALESIKKGLVMFLQFCRLYAFLGMIPAGLSSSLLAVDNFSEISPLLFLKGVLQYIVTFFFTSQFVMGVNQLSDVEIDKINKPDLPLASGEYSFTSGVILVTSFLLAGFGVAWMLGSQPLIWSVVVTAALMGAYSVNFPLLRWKRSIILTSLSNAIAMLASFHIGPFLHMKTFVLKKAATFPRSMILGCVVIGLFYTIITLTKDLGDVEGDKAAGLKTLPIRLGVKPVFWLCVSLIQMAYGIAITMGALSPVLWSKIVTVVAHAFMVFYVWNHALNSVDLSSKDSLHSFHLFMFKLVTVEGILIQFVR
In the case of B1, the Km [10] is reported as 99.52 ± 15.11 µM, the Km [11] is reported as 153.7 ± 27.28 µM and the Km ([12]; other: microsomal fraction of N. benthamiana leaves, pH 9.0, 28° C.) is reported as 311.4 ± 54.83 µM. The “specific activity, microsomal fraction vs crude cell-free extracts” value [13] was 8.9 fold.

B2: AhR3′DT-1 (Arachis hypogaea) (protein)
chain: MAFGVVAASFSRAPSIVTTRGCYVTRASLPNKSLKFSKEYNLKTSLQHNWKHNSRSIFERGSTITTCDKYDEKKYLMNVTQSHEAEPHSQSILKSIIDALDAFRKFSRFYAFIAMVVGSLSTSLLAVDNLTELYPAFFNGFLQCMAAYFFMHLYIVGINQLADLEIDKINKPYLPLASGNYSFRTAVITVTSFLFTGFGIAWIIGSKPLLWTIFASFVLMTAYSVNLPLLRWKKSTILTVMGNTLSMVISFNLGPFYHMKTHVLKKAATFPRSLLFAVVVMSMYYIVIALTKDIPDIEGDKEAGLQTLAIRLGPKTVFWSSVALLEMAYGAAIIIGASSPFLWSKISVVLSHAILALFVWYRSTLVDLSNKDSLQAFYMLIFKLFSVENILMLFVR
In the case of B2, the Km [10] is reported as 17.67 ± 1.601 µM, the Km [11] is reported as 691.4 ± 48.46 µM and the Km ([12]; pH 9.0, 28.0 °C) is reported as 50.3 ± 5.509 µM. For the same molecule, the resveratrol prenyltransferase activity [14] was “highest activity” and the “specific activity, microsomal fraction vs crude cell-free extracts” value [15] was 13.9 fold.
